Laboratory results from US10130637B2, “Inhibition of histone methyltransferase for cardiac reprogramming” (Duke University, priority 2012, dated 2018).
Where a name gives a salt, the structure may show the parent alone.

What was measured:
[1] = tested on: Human fibroblasts (BJ cells); assay: cardiac marker gene expression by qPCR in miRNA-transfected human fibroblasts with JAK inhibitor; assay type: cell-based; conditions: 1 μM, compared to cells transfected with the miRNAs alone
Procedure: Gene expression was determined by qPCR. (A) Isl-1 gene expression. (B) […] gene expression. (C) Tbx5 gene expression. (D) Mef2c gene expression. (E) Gata-4 gene expression.
RNA was harvested and prepared according to standard protocols for qPCR gene expression analysis. The expression of cardiac marker genes, such as Isl1, Mesp1, Tbx5, Mef2c, Gata4, and Hand2 was assessed.

[2] = tested on: lysine 9 of histone H3 (H3K9); conditions: has been shown; cited from earlier work
[3] = target: T1, G9a histone lysine methyltransferase (Homo sapiens, UniProt Q96KQ7); conditions: reported activity; cited from earlier work
T1 sequence (Q96KQ7 1-1210): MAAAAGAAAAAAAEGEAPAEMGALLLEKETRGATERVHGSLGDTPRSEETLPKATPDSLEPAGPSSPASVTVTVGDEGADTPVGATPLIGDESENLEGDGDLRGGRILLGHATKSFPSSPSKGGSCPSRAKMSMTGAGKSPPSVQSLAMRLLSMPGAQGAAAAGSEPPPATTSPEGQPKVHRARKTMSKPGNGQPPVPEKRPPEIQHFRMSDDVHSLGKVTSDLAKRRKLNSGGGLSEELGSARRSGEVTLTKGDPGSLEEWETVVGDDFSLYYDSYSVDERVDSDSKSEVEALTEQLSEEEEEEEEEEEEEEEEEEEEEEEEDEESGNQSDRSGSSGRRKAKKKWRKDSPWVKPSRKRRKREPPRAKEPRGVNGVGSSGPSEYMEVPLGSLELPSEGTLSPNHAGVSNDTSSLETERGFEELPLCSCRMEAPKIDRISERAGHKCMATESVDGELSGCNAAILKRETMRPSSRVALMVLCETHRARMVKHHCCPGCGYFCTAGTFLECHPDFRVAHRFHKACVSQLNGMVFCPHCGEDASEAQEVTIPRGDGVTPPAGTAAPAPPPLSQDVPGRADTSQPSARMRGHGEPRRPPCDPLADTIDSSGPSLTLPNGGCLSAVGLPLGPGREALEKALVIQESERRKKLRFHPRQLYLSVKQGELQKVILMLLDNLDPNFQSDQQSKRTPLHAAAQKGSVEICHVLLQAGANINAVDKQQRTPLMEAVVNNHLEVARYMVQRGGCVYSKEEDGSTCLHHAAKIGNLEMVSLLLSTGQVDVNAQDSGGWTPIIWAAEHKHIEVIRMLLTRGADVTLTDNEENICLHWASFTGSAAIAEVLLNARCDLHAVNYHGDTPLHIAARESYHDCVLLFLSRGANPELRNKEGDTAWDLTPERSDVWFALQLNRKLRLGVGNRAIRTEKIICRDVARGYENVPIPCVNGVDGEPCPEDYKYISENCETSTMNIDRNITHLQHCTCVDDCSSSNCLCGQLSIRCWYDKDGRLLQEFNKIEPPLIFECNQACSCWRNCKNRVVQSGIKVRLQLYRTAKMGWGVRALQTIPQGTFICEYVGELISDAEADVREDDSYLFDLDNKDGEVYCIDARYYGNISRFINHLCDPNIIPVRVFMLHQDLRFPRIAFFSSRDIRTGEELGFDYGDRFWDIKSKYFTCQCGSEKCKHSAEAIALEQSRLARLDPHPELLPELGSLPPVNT

[4] = tested on: Neonatal cardiac fibroblasts; assay: cardiac marker gene expression by qPCR in neonatal cardiac fibroblasts treated with HMT inhibitors, no microRNA; assay type: cell-based, mouse; conditions: 1 μM, after 3 days, absence of microRNA combination (FIG. 9A)
Procedure: Neonatal cardiac fibroblasts were treated with 1 μM of the H3K9me3 inhibitor BIX-01294 (BIX) or 1 μM of the H3K27me3/H4K20me3 inhibitor 3-Deazaneplanocin A hydrochloride (DZNep) from day 1 to day 3 in the absence (A) or presence of microRNA combination (MC) (B). Gene expression of cardiac markers was assessed by qPCR. Data are shown as Avg+Sdv. *P<0.05.
Inhibition of histone methyltransferase activity by small molecule compounds was investigated. Neonatal cardiac fibroblasts were treated with 1 μM of the H3K9 methylation inhibitor BIX-01294 or 1 μM of the H3K27/H4K20 methylation inhibitor 3-Deazaneplanocin A hydrochloride (DZNep). After 3 days, RNA was harvested using standard protocols known in the art, and cardiac gene expression was assessed by qPCR. The cardiac genes tested were Tbx5, Mef2C, Gata4, and Nkx2.5. […] Alternatively, inhibition of H3K9 causes upregulation of other cardiac markers, such asTbx5, and therefore inhibition of H3K9 methylation also promotes the expression of at least one cardiac marker.

[5] = target: T2, G9a-like protein (Homo sapiens, UniProt Q9H9B1); conditions: reported activity; cited from earlier work
T2 sequence (Q9H9B1 1-1298): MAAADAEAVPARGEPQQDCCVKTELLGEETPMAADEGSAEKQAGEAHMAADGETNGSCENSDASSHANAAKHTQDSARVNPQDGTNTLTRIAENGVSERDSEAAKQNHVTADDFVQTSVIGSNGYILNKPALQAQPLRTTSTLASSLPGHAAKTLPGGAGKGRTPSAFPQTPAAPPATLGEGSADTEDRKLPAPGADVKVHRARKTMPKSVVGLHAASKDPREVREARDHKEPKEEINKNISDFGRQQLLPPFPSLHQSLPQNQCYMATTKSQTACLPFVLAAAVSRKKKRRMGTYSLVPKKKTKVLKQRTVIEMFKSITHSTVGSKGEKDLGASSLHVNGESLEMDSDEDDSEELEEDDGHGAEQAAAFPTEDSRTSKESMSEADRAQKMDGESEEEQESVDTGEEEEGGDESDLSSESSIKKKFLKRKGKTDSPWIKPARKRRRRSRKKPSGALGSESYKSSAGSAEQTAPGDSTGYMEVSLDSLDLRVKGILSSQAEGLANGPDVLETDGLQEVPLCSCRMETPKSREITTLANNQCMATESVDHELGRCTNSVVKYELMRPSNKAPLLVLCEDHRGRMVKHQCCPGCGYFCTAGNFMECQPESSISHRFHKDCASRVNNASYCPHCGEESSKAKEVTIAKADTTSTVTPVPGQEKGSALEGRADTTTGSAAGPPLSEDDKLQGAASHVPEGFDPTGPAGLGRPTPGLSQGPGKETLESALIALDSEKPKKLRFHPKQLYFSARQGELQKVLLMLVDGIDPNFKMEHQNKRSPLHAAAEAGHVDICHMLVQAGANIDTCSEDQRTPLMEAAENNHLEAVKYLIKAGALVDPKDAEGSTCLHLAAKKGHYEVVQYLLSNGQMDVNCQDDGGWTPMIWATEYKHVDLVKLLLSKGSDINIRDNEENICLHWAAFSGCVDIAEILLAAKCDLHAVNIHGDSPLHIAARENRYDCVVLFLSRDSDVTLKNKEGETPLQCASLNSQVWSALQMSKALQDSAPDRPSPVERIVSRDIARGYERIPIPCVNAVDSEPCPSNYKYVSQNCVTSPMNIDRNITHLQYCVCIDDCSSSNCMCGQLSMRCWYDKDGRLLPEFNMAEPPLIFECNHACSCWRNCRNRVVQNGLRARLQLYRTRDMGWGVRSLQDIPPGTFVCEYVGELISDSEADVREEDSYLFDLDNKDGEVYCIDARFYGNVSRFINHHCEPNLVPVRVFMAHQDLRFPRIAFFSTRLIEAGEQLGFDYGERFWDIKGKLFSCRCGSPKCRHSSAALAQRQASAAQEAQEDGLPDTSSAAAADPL

| SMILES | expression of cardiac markers (Isl1, Mesp1, Tbx5, Mef2c, Gata4, Hand2) [1] | methylation at lysine 9 of histone H3 (H3K9) [2] | activity on G9a histone lysine methyltransferase [3] | Mef2C cardiac marker gene expression [4] | Nkx2.5 cardiac marker gene expression [4] | Tbx5 cardiac marker gene expression [4] | activity on G9a-like protein [5] |
| --- | --- | --- | --- | --- | --- | --- | --- |
| CC(C)(C)c1nc2c3ccc(F)cc3c3c(=O)[nH]ccc3c2[nH]1 [JAK inhibitor I, 2-(1,1-Dimethylethyl)-9-fluoro-3,6-dihydro-7H-benz[h]-imidaz[4,5-f]isoquinolin-7-one] | increases | – | – | – | – | – | – |
| COc1cc2nc(N3CCCN(C)CC3)nc(NC3CCN(Cc4ccccc4)CC3)c2cc1OC [BIX-01294, 2-(Hexahydro-4-methyl-1H-1,4-diazepin-1-yl)-6,7-dimethoxy-N-[1-(phenylmethyl)-4-piperidinyl]-4-quinazolinamine trihydrochloride] | – | inhibit | inhibition | significant downregulation | significant downregulation | upregulation | inhibition |
